In series [1] the test system is Human immunodeficiency virus. The series can be described thus: Inhibition of reverse transcriptase in HIV1 NL4.3 infected in human HeLaP4 cells assessed as reduction in formation of reverse transcribed DNA at 50 fold antiviral EC50 incubated up to 60 mins by quantitative PCR analysis. The series is classed as cell-based.
Series [2] concerns the target Human immunodeficiency virus type 1 integrase (Human immunodeficiency virus 1) (UniProt Q7ZJM1). In words: Inhibition of integrase in HIV1 NL4.3 infected in human HeLaP4 cells assessed as increase in increase in 2-LTR circles at 50 fold antiviral EC50 incubated up to 60 mins by quantitative PCR analysis. Format: cell-based.
The subject of series [3] is Human immunodeficiency virus. The series can be described thus: Inhibition of reverse transcriptase in HIV1 NL4.3 infected in human HeLaP4 cells assessed as reduction in integrated provirus formation at 50 fold antiviral EC50 incubated up to 60 mins by quantitative PCR analysis. Format: cell-based.
Series [4] deals with Human immunodeficiency virus. In words: Antiviral activity against HIV infected in human MT4 cells assessed as inhibition of virus-induced cytopathogenicity by MTT assay. Format: functional, organism-based. In general terms: Cytopathic effects are the visible damage that an infection or toxin causes in cultured cells.
A short description of series [5]: Selectivity index, ratio of CC50 for cytotoxicity against human MT4 cells assessed as reduction in cell viability by MTT assay to EC50 for antiviral activity against HIV infected in human MT4 cells assessed as inhibition of virus-induced cytopathogenicity by MTT assay. Format: toxicity, cell-based. Conditions: read-out: Ratio CC50/EC50. A general note: Formazan colour is commonly taken as a measure of viable cells.

Series [6] deals with Human immunodeficiency virus. The series can be described thus: Inhibition of reverse transcriptase in HIV1 NL4.3 infected in human HeLaP4 cells assessed as reduction in late reverse transcription by time of addition assay. The series is classed as cell-based.
The target in series [7] is Human immunodeficiency virus type 1 integrase (Human immunodeficiency virus 1) (UniProt Q7ZJM1). The series can be described thus: Inhibition of HIV integrase strand transfer activity.
Series [8] relates to Human immunodeficiency virus. In words: Inhibition of reverse transcriptase in HIV1 NL4.3 infected in human HeLaP4 cells assessed as reduction in formation of 2-LTRs at 50 fold antiviral EC50 incubated up to 60 mins by quantitative PCR analysis. Format: cell-based.
Series [9] in a line: Cytotoxicity against human MT4 cells assessed as reduction in cell viability by MTT assay. Format: cell-based.

Structures are written as SMILES. Calls of active or inactive are those of the source. No cut-off for these calls is given here.

The EC50 is the concentration needed to bring the measured effect to its halfway point. In general, CC50 refers to the concentration at which the toxic effect on the cells reaches its halfway point.

Human immunodeficiency virus type 1 integrase (Human immunodeficiency virus 1), sequence (Q7ZJM1 as listed by the source): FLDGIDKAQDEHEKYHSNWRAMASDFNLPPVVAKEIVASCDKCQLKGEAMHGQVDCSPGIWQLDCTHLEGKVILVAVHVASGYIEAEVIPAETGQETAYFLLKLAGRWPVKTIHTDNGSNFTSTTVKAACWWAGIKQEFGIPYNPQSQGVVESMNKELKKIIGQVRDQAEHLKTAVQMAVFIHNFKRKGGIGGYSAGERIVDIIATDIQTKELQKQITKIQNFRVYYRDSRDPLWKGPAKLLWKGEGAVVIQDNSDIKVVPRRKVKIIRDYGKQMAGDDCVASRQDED

As to `Cc1cn([C@H]2C[C@H](N=[N+]=[N-])[C@@H](CO)O2)c(=O)[nH]c1=O`, in series [1], the inhibition result is “Active”.
`CC(NC(=O)c1ccccc1)c1nn(-c2ccc(C(N)=O)cc2)c2c1C(=O)CC(C)(C)C2` (racemic): the inhibition entry in [2] and in series [7] was “inactive” each time. Moreover, the inhibition result in [3], in series [1], in series [6] and in [8] was “Active” each time. In addition, in [4] (Human immunodeficiency virus 1, MT4, read-out: EC50), the EC50 was 2.77 µM. In addition, in series [5], the selectivity ratio was found to be 68. The CC50 in series [9] is 119 µM.
In the case of `CC(N)c1nn(-c2ccc(C(=O)O)cc2)c2c1C(=O)CC(C)(C)C2.Cl` (racemic), in series [4], the EC50 result is “Not Active”.
For `CC(NC(=O)c1ccccc1)c1nn(-c2ccc(C#N)cc2)c2c1C(=O)CC(C)(C)C2` (racemic), the EC50 result in series [4] is on record as “Not Active”.

(Values after ChEMBL document CHEMBL4316641, “Synthesis and Anti-HIV Profile of a Novel Tetrahydroindazolylbenzamide Derivative Obtained by Oxazolone Chemistry” (ACS Med Chem Lett, 2019).)
